Source: US11464770B2, “Anticancer pharmaceutical composition” (NATIONAL CANCER CENTER, priority 2016, dated 2022)
“Also recorded” adds a separate entry of the source.

Legend:
[1] = IV and IP single toxicity test in mice; assay type: in vivo; conditions: for Percentage (dead subjects), single toxicity evaluation: Mouse
[2] = system: zebrafish; test: Cardiotoxicity experiment using zebrafish (heart rate, lethality); assay type: in vivo; conditions: 5 uM, n = 10
[3] = system: KU-19-19: Bladder carcinoma; test: Cell based assay, cytotoxicity in KU19-19 cells; conditions: Homo sapiens, 72 hours
Description: Commercially available bladder cancer, prostate cancer, lung cancer, breast cancer, blood cancer, pancreatic cancer, colorectal cancer, brain cancer, neuroblastoma, melanoma, liver cancer, cervical carcinoma, ovarian cancer, renal cancer, and papilloma cell lines were each treated with trypsin-EDTA and cultured, followed by being seeded in each well of a 96 well plate. After 24 hours of treatment at constant temperature, the respective cells were treated with the candidate compound so that a final concentration became 0 to 2 μM. The treated cells were additionally cultured for 72 hours, and cell viability was measured by using an ATP detection method (CellTiter-Glo® Luminescent Cell Viability Assay, Promega).

[4] = Cell based assay, cytotoxicity in RT4 papilloma cells (selectivity); parameters: species or system human; conditions: human; RT4 cells (benign), 72 hours
[5] = IV and IP single toxicity tests at 40 mpk, 40 mg/kg

| SMILES | Dead subjects [1, 5] | General symptoms (feed intake, drinking water intake) [1, 5] | Weight changes [1, 5] | Percentage (dead subjects), single toxicity evaluation ([1]; Female, IP 40 mg/kg) | Percentage (dead subjects), single toxicity evaluation ([1]; Female, IV 40 mg/kg) | Percentage (dead subjects), single toxicity evaluation ([1]; Male, IP 40 mg/kg) | Percentage (dead subjects), single toxicity evaluation ([1]; Male, IV 40 mg/kg) | Changes (%) in heart rate ([2]; mean) | Lethality [2] | IC50 [3] | IC50 at 72 h [4] |
| --- | --- | --- | --- | --- | --- | --- | --- | --- | --- | --- | --- |
| CC(=O)c1c([S+]([O-])Cc2ccccc2)nc2c(Br)ccc(Cl)c2c1O (centres unmarked) [Compound 4] | No dead subjects were observed | Feeding and drinking water intakes were good, and no other abnormal symptoms were observed | no significant weight changes; also recorded: a weight gain was observed, but weight gain was slightly reduced in some subjects | 0 (0/2) | 0 (0/2) | 0 (0/2) | 0 (0/2) | 88.5% | 1/10 | – | – |
| CC(=O)c1c([S+]([O-])Cc2ccc(-n3cccn3)nc2)[nH]c2c(Br)ccc(Cl)c2c1=O (centres unmarked) [Compound 99, 2-(((6-(1H-pyrazol-1-yl)pyridin-3-yl)methyl)sulfinyl)-3-acetyl-8-bromo-5-chloroquinolin-4(1H)-one] | – | – | – | – | – | – | – | – | – | 1.12 µM | > 10 µM |
